In patent US5571808A, “Method for treating smoking-related bone loss” (Eli Lilly and Company, priority 1995, dated 1996):

How the values were obtained:
[1] = test system: ovariectomized (ovex) rats; test: Femur bone density in ovariectomized rats (model of post-menopausal osteoporosis); format: in vivo, Sprague Dawley rats; conditions: for inhibition in vivo at 1 mg/kg: Rattus norvegicus, 840 h, 1 mg/kg oral, relative to estrogen treated and untreated ovex animals, read-out: % Inhibition of Bone Loss; for Prevention of bone loss (in words): oral, femur density
Description: A model of post-menopausal osteoporosis was used in which effects of different treatments upon femur density were determined. Seventy-five day old female Sprague Dawley rats (weight range of 225 g to 275 g) were obtained from Charles River Laboratories (Portage, Mich.). They were housed in groups of 3 and had ad libitum access to food (calcium content approximately 1%) and water. Room temperature was maintained at 22.2°±1.7° C. with a minimum relative humidity of 40%. The photoperiod in the room was 12 hours light and 12 hours dark.
The right femurs were excised and scanned at the distal metaphysis 1 mm from the patellar groove with single photon absorptiometry. Results of the densitometer measurements represent a calculation of bone density as a function of the bone mineral content and bone width.
Results are reported as the mean of measurements from thirty rats ± the standard error of the mean.
Accordingly, each point reflects the responses of thirty rats and depicts a typical dose response curve for raloxifene in this model. Results are reported as the mean ± the standard error of the mean.
Other compounds of formula I were administered orally in the rat assay described in Example 1.

[2] = test system: bone loss in postmenopausal women; conditions: cited from earlier work

Row | Molecule | inhibition in vivo at 1 mg/kg [1] [%] | Prevention of bone loss (in words) [1] | further results
1 | O=C(Oc1ccc(-c2sc3cc(OC(=O)c4ccccc4)ccc3c2C(=O)c2ccc(OCCN3CCCCC3)cc2)cc1)c1ccccc1 [Compound 12] | 60 | – | –
2 | O=C(c1ccc(OCCN2CCCC2)cc1)c1c(-c2ccc(O)cc2)sc2cc(O)ccc12 [Compound 16] | 25 | – | –
3 | COc1ccc(-c2sc3cc(OC)ccc3c2C(=O)c2ccc(OCCN3CCCCC3)cc2)cc1 [Compound 18] | 26 | – | –
4 | C#C[C@]1(O)CC[C@H]2[C@@H]3CCc4cc(O)ccc4[C@H]3CC[C@@]21C [EE2, ethynyl estradiol] | – | prevented this loss of bone in a dose dependent manner | –
5 | O=C(c1ccc(OCCN2CCCCC2)cc1)c1c(-c2ccc(O)cc2)sc2cc(O)ccc12 [raloxifene, 6-hydroxy-2-(4-hydroxyphenyl)-3-[4-(2-piperidinoethoxy)benzoyl]benzo[b]thiophene] | – | prevented bone loss in a dose dependent manner | –
6 | estrogen | – | – | Disorders implicated in long-term estrogen therapy (in words) ([2]; long-term therapy, postmenopausal women): increased risk of uterine and breast cancer; Protective effects of estrogen therapy on bone (in words) ([2]; women smokers (Kiel et al.)): eliminated for women smokers
